From article PMC5218480 (PLoS ONE, 2017)

Test system: MV-4-11 cells
Assay: Gene expression microarray analysis (Affymetrix PrimeView) and GSEA
Format: cell-based, human
Set-up: RFU PODN (11730768_x_at) / Fold change /veh PODN (11730768_x_at) / RFU LINC00158 (11744669_a_at) / Fold change /veh LINC00158 (11744669_a_at) / RFU DUSP10 (11751237_a_at) / Fold change /veh DUSP10 (11751237_a_at) / RFU ID3 (11757404_x_at) / Fold change /veh ID3 (11757404_x_at) / RFU PLEKHG5 (11737974_s_at) / Fold change /veh PLEKHG5 (11737974_s_at) / RFU LRRC4B (11730491_at) / Fold change /veh LRRC4B (11730491_at) / RFU GIMAP4 (11747438_a_at) / Fold change /veh GIMAP4 (11747438_a_at) / RFU KRT8 (11758183_x_at) / Fold change /veh KRT8 (11758183_x_at) / RFU CNN1 (11734310_a_at) / Fold change /veh CNN1 (11734310_a_at) / RFU VPS37D (11726825_at) / Fold change /veh VPS37D (11726825_at) / RFU C10orf10 (11716522_x_at) / Fold change /veh C10orf10 (11716522_x_at) / RFU KIR2DL2 /// KIR2DL4 /// KIR2DL5A /// KIR2DL5B /// KIR2DS1 /// KIR2DS2 /// KIR2DS3 /// KIR2DS4 /// KIR3DL3 /// KIR3DL3 /// KIR3DS1 (11738374_at) / Fold change /veh KIR2DL2 /// KIR2DL4 /// KIR2DL5A /// KIR2DL5B /// KIR2DS1 /// KIR2DS2 /// KIR2DS3 /// KIR2DS4 /// KIR3DL3 /// KIR3DL3 /// KIR3DS1 (11738374_at) / RFU C1QL1 (11718748_at) / Fold change /veh C1QL1 (11718748_at) / RFU TMPRSS4 (11747572_a_at) / Fold change /veh TMPRSS4 (11747572_a_at) / RFU HAMP (11756126_x_at) / Fold change /veh HAMP (11756126_x_at) / RFU RNFT2 (11725882_a_at) / Fold change /veh RNFT2 (11725882_a_at) / RFU NR4A2 (11747474_a_at) / Fold change /veh NR4A2 (11747474_a_at) / RFU ABCC12 (11746883_a_at) / Fold change /veh ABCC12 (11746883_a_at) / RFU TMEM136 (11760407_x_at) / Fold change /veh TMEM136 (11760407_x_at) / RFU CLDN22 /// WWC2 (11732394_at) / Fold change /veh CLDN22 /// WWC2 (11732394_at) / RFU HLA-DPB1 (11760878_x_at) / Fold change /veh HLA-DPB1 (11760878_x_at) / RFU SPINT1 (11716480_a_at) / Fold change /veh SPINT1 (11716480_a_at) / RFU GAP43 (11754022_s_at) / Fold change /veh GAP43 (11754022_s_at) / RFU A4GNT (11735810_at) / Fold change /veh A4GNT (11735810_at) / RFU PRB3 (11715151_x_at) / Fold change /veh PRB3 (11715151_x_at) / RFU TUBB4B (11761932_at) / Fold change /veh TUBB4B (11761932_at) / RFU CAPN14 (11732068_a_at) / Fold change /veh CAPN14 (11732068_a_at) / RFU TMCC2 (11721928_a_at) / Fold change /veh TMCC2 (11721928_a_at) / RFU IRGQ (11745062_a_at) / Fold change /veh IRGQ (11745062_a_at) / RFU FAM174B (11720279_a_at) / Fold change /veh FAM174B (11720279_a_at) / RFU TMPRSS4 (11748680_a_at) / Fold change /veh TMPRSS4 (11748680_a_at) / RFU FAM212B (11763350_a_at) / Fold change /veh FAM212B (11763350_a_at) / RFU PLEKHG5 (11743358_a_at) / Fold change /veh PLEKHG5 (11743358_a_at) / RFU ZSCAN30 (11745921_a_at) / Fold change /veh ZSCAN30 (11745921_a_at) / RFU CMKLR1 (11741424_a_at) / Fold change /veh CMKLR1 (11741424_a_at) / RFU LOC101060620 /// MAPK8IP1 (11723275_at) / Fold change /veh LOC101060620 /// MAPK8IP1 (11723275_at) / RFU SPTSSB (11747773_x_at) / Fold change /veh SPTSSB (11747773_x_at) / RFU PRSS12 (11739890_at) / Fold change /veh PRSS12 (11739890_at) / RFU BIN1 (11741810_x_at) / Fold change /veh BIN1 (11741810_x_at) / RFU WNT11 (11732464_a_at) / Fold change /veh WNT11 (11732464_a_at) / RFU C10orf10 (11716521_a_at) / Fold change /veh C10orf10 (11716521_a_at) / RFU C5orf56 (11738089_at) / Fold change /veh C5orf56 (11738089_at) / RFU CYB561 (11721691_x_at) / Fold change /veh CYB561 (11721691_x_at) / RFU ANKRD19P (11752326_a_at) / Fold change /veh ANKRD19P (11752326_a_at) / RFU OR2T12 /// OR2T33 /// OR2T8 (11738714_s_at) / Fold change /veh OR2T12 /// OR2T33 /// OR2T8 (11738714_s_at) / RFU VCAN (11748164_a_at) / Fold change /veh VCAN (11748164_a_at) / RFU JSRP1 (11732532_at) / Fold change /veh JSRP1 (11732532_at) / RFU KRTAP10-11 (11738290_x_at) / Fold change /veh KRTAP10-11 (11738290_x_at) / RFU MYO3A (11730013_a_at) / Fold change /veh MYO3A (11730013_a_at) / RFU EBF3 (11725865_a_at) / Fold change /veh EBF3 (11725865_a_at) / RFU CAMK2N1 (11719241_x_at) / Fold change /veh CAMK2N1 (11719241_x_at) / RFU C5orf56 (11738088_a_at) / Fold change /veh C5orf56 (11738088_a_at) / RFU OLFML3 (11715873_a_at) / Fold change /veh OLFML3 (11715873_a_at) / RFU LOC100653217 /// NTM (11731650_a_at) / Fold change /veh LOC100653217 /// NTM (11731650_a_at) / RFU MAPK11 (11762145_a_at) / Fold change /veh MAPK11 (11762145_a_at) / RFU FIZ1 (11724087_x_at) / Fold change /veh FIZ1 (11724087_x_at) / RFU OASL (11726364_x_at) / Fold change /veh OASL (11726364_x_at) / RFU SOX15 (11748057_x_at) / Fold change /veh SOX15 (11748057_x_at) / RFU CD79A (11719716_a_at) / Fold change /veh CD79A (11719716_a_at) / RFU HIST1H1D (11736915_at) / Fold change /veh HIST1H1D (11736915_at) / RFU CASKIN2 (11723855_a_at) / Fold change /veh CASKIN2 (11723855_a_at) / RFU LOC730098 (11760151_x_at) / Fold change /veh LOC730098 (11760151_x_at) / RFU OR4N2 (11742367_at) / Fold change /veh OR4N2 (11742367_at) / RFU PRRT2 (11749266_a_at) / Fold change /veh PRRT2 (11749266_a_at) / RFU SNX32 (11753110_a_at) / Fold change /veh SNX32 (11753110_a_at) / RFU CDHR5 (11726645_a_at) / Fold change /veh CDHR5 (11726645_a_at) / RFU RCAN1 (11760418_a_at) / Fold change /veh RCAN1 (11760418_a_at) / RFU FAM167A (11723789_a_at) / Fold change /veh FAM167A (11723789_a_at) / RFU FAM26E (11764081_at) / Fold change /veh FAM26E (11764081_at) / RFU ISYNA1 (11749810_s_at) / Fold change /veh ISYNA1 (11749810_s_at) / RFU ACY1 (11761880_at) / Fold change /veh ACY1 (11761880_at) / RFU 11764098_at / Fold change /veh 11764098_at / RFU SAMD14 (11745864_x_at) / Fold change /veh SAMD14 (11745864_x_at) / RFU NPB (11741838_a_at) / Fold change /veh NPB (11741838_a_at) / RFU TMPRSS6 (11731388_a_at) / Fold change /veh TMPRSS6 (11731388_a_at) / RFU KRTAP10-2 (11738614_at) / Fold change /veh KRTAP10-2 (11738614_at) / RFU ARHGAP8 /// PRR5-ARHGAP8 (11727945_x_at) / Fold change /veh ARHGAP8 /// PRR5-ARHGAP8 (11727945_x_at) / RFU KRTAP5-7 /// NADSYN1 (11734609_at) / Fold change /veh KRTAP5-7 /// NADSYN1 (11734609_at) / RFU RASL12 (11751679_a_at) / Fold change /veh RASL12 (11751679_a_at) / RFU CDKN2B (11736163_a_at) / Fold change /veh CDKN2B (11736163_a_at) / RFU PRF1 (11729649_at) / Fold change /veh PRF1 (11729649_at) / RFU, ZNF638 /// ZNF638-IT1 / Fold change vs veh, ZNF638 /// ZNF638-IT1 / RFU, PANK3 / Fold change vs veh, PANK3 / RFU, SH3YL1 / Fold change vs veh, SH3YL1 / RFU, ZEB2 / Fold change vs veh, ZEB2 / RFU, NRIP1 / Fold change vs veh, NRIP1 / RFU, PTTG1IP / Fold change vs veh, PTTG1IP / RFU, CAPN2 / Fold change vs veh, CAPN2 / RFU, MED14 / Fold change vs veh, MED14 / RFU, SNORA58 / Fold change vs veh, SNORA58 / RFU, C1orf63 / Fold change vs veh, C1orf63 / RFU, LRRFIP1 / Fold change vs veh, LRRFIP1 / RFU, NDUFAF7 / Fold change vs veh, NDUFAF7 / RFU, SLC12A2 / Fold change vs veh, SLC12A2 / RFU, IBTK / Fold change vs veh, IBTK / RFU, ESF1 / Fold change vs veh, ESF1 / Fold change vs veh, TMEM50B / RFU, TAOK1 / Fold change vs veh, TAOK1 / RFU, ACBD3 / Fold change vs veh, ACBD3 / RFU, TMA16 / Fold change vs veh, TMA16 / RFU, RWDD3 / Fold change vs veh, RWDD3 / RFU, BCAT1 / Fold change vs veh, BCAT1 / RFU, EDEM3 / Fold change vs veh, EDEM3 / RFU, TMEM33 / Fold change vs veh, TMEM33 / RFU, WDR75 / Fold change vs veh, WDR75 / RFU, AHCTF1 / Fold change vs veh, AHCTF1 / RFU, TFRC / Fold change vs veh, TFRC / RFU, ZDHHC17 / Fold change vs veh, ZDHHC17 / RFU, NOM1 / Fold change vs veh, NOM1 / RFU, ARL8B / Fold change vs veh, ARL8B / RFU, ZBTB11 / Fold change vs veh, ZBTB11 / RFU, TAMM41 / Fold change vs veh, TAMM41 / RFU, KIAA1704 /// LOC100996395 / Fold change vs veh, KIAA1704 /// LOC100996395 / RFU, ING1 / Fold change vs veh, ING1 / RFU, TRMT61B / Fold change vs veh, TRMT61B / RFU, FUBP3 / Fold change vs veh, FUBP3 / RFU, TP53 / Fold change vs veh, TP53 / RFU, TNKS2 / Fold change vs veh, TNKS2 / RFU, ZFP14 / Fold change vs veh, ZFP14 / RFU, ACTR2 / Fold change vs veh, ACTR2 / RFU, PPP3R1 / Fold change vs veh, PPP3R1 / RFU, PIK3R1 / Fold change vs veh, PIK3R1 / RFU, HNRNPA1 / Fold change vs veh, HNRNPA1 / RFU, RNF170 / Fold change vs veh, RNF170 / RFU, ZNF28 / Fold change vs veh, ZNF28 / RFU, RNGTT / Fold change vs veh, RNGTT / RFU, OGT / Fold change vs veh, OGT / RFU, BRD1 / Fold change vs veh, BRD1 / RFU, MARS / Fold change vs veh, MARS / RFU, ZNF655 / Fold change vs veh, ZNF655 / RFU, FAHD1 / Fold change vs veh, FAHD1 / RFU, BDP1 / Fold change vs veh, BDP1 / RFU, LRRCC1 / Fold change vs veh, LRRCC1 / RFU, ARID1A / Fold change vs veh, ARID1A / RFU, ZNF146 / Fold change vs veh, ZNF146 / RFU, ZNF330 / Fold change vs veh, ZNF330 / RFU, GPN3 / Fold change vs veh, GPN3 / RFU, C9orf123 / Fold change vs veh, C9orf123 / RFU, N4BP2L2 / Fold change vs veh, N4BP2L2 / RFU, ARFIP1 / Fold change vs veh, ARFIP1 / RFU, FAM179B / Fold change vs veh, FAM179B / RFU, BCL10 / Fold change vs veh, BCL10 / RFU, UHRF1BP1L / Fold change vs veh, UHRF1BP1L / RFU, BET1 / Fold change vs veh, BET1 / RFU, CNOT2 / Fold change vs veh, CNOT2 / RFU, ZNF268 / Fold change vs veh, ZNF268 / Fold change vs veh, ZNF507 / RFU, DGCR2 / Fold change vs veh, DGCR2 / RFU, WDSUB1 / Fold change vs veh, WDSUB1 / Fold change vs veh, HSP90B1 /// MIR3652 / RFU, ADSS / Fold change vs veh, ADSS / RFU, GK / Fold change vs veh, GK / RFU, ZNF148 / Fold change vs veh, ZNF148 / RFU, TAF9 / Fold change vs veh, TAF9 / RFU, SLC1A5 / Fold change vs veh, SLC1A5 / RFU, SLMO2 / Fold change vs veh, SLMO2 / RFU, ABCC4 / Fold change vs veh, ABCC4 / RFU, LOC101060439 /// RAP1B / Fold change vs veh, LOC101060439 /// RAP1B / RFU, RFX7 / Fold change vs veh, RFX7 / RFU, GTPBP10 / Fold change vs veh, GTPBP10 / RFU, CNEP1R1 / Fold change vs veh, CNEP1R1 / RFU, BIVM-ERCC5 /// ERCC5 / Fold change vs veh, BIVM-ERCC5 /// ERCC5 / RFU, ILF3 / Fold change vs veh, ILF3 / RFU 11762660_at / Fold change /veh 11762660_at / RFU VCAN (11757783_s_at) / Fold change /veh VCAN (11757783_s_at) / RFU DDX43 (11728927_at) / Fold change /veh DDX43 (11728927_at) / RFU KRT8 (11758188_x_at) / Fold change /veh KRT8 (11758188_x_at) / RFU NKD1 (11759106_at) / Fold change /veh NKD1 (11759106_at) / RFU SRD5A1 (11742802_a_at) / Fold change /veh SRD5A1 (11742802_a_at) / RFU TPSAB1 /// TPSB2 (11721975_s_at) / Fold change /veh TPSAB1 /// TPSB2 (11721975_s_at) / RFU GSTM3 (11746129_a_at) / Fold change /veh GSTM3 (11746129_a_at) / RFU IL23R (11737362_x_at) / Fold change /veh IL23R (11737362_x_at) / RFU TMEM51 (11727254_a_at) / Fold change /veh TMEM51 (11727254_a_at) / RFU PIWIL2 (11732686_x_at) / Fold change /veh PIWIL2 (11732686_x_at) / RFU ORM1 (11744905_x_at) / Fold change /veh ORM1 (11744905_x_at) / RFU CCDC152 (11743942_at) / Fold change /veh CCDC152 (11743942_at) / RFU ECM1 (11717891_a_at) / Fold change /veh ECM1 (11717891_a_at) / RFU IL23R (11748794_a_at) / Fold change /veh IL23R (11748794_a_at) / RFU TNFAIP8L3 (11732012_x_at) / Fold change /veh TNFAIP8L3 (11732012_x_at) / RFU MBOAT4 (11741988_at) / Fold change /veh MBOAT4 (11741988_at) / RFU 11764193_at / Fold change /veh 11764193_at / RFU TMEM53 (11763286_at) / Fold change /veh TMEM53 (11763286_at) / RFU MAGEB2 (11727129_at) / Fold change /veh MAGEB2 (11727129_at) / RFU TMEM200A (11744735_a_at) / Fold change /veh TMEM200A (11744735_a_at) / RFU CCDC152 (11751479_a_at) / Fold change /veh CCDC152 (11751479_a_at) / RFU FAM211A (11726209_a_at) / Fold change /veh FAM211A (11726209_a_at) / RFU RGS16 (11746705_a_at) / Fold change /veh RGS16 (11746705_a_at) / RFU VCAN (11755009_s_at) / Fold change /veh VCAN (11755009_s_at) / RFU RHOB (11743442_s_at) / Fold change /veh RHOB (11743442_s_at) / RFU RGS16 (11720943_a_at) / Fold change /veh RGS16 (11720943_a_at) / RFU RGS16 (11720944_at) / Fold change /veh RGS16 (11720944_at) / RFU, VPS4B / Fold change vs veh, VPS4B / RFU, CREB1 / Fold change vs veh, CREB1 / RFU, DNAJC13 / Fold change vs veh, DNAJC13 / RFU, GNAQ / Fold change vs veh, GNAQ / RFU, CDK5R1 / Fold change vs veh, CDK5R1 / RFU, ZRANB3 / Fold change vs veh, ZRANB3 / RFU, CUL4A / Fold change vs veh, CUL4A / RFU, CCNY / Fold change vs veh, CCNY / RFU, UFL1 / Fold change vs veh, UFL1 / RFU, COG3 / Fold change vs veh, COG3 / RFU, DIAPH2 / Fold change vs veh, DIAPH2 / RFU, SKA2 / Fold change vs veh, SKA2 / RFU, AFF3 / Fold change vs veh, AFF3 / RFU, LMF1 / Fold change vs veh, LMF1 / RFU, IPO11 / Fold change vs veh, IPO11 / RFU, DFFB / Fold change vs veh, DFFB / RFU, FOXP1 / Fold change vs veh, FOXP1 / RFU, CARD8 / Fold change vs veh, CARD8 / RFU, STRN3 / Fold change vs veh, STRN3 / RFU, ADK / Fold change vs veh, ADK / RFU, RASSF2 / Fold change vs veh, RASSF2 / RFU, WIPF1 / Fold change vs veh, WIPF1 / RFU, LARP1B / Fold change vs veh, LARP1B / RFU, RASA1 / Fold change vs veh, RASA1 / RFU, RB1 / Fold change vs veh, RB1 / RFU, PPFIA1 / Fold change vs veh, PPFIA1 / RFU, MAT2A / Fold change vs veh, MAT2A / RFU, CCT5 / Fold change vs veh, CCT5 / RFU, WDR92 / Fold change vs veh, WDR92 / RFU, CUX1 / Fold change vs veh, CUX1 / RFU, TTC7A / Fold change vs veh, TTC7A / RFU, TMEM135 / Fold change vs veh, TMEM135 / RFU, DEPTOR / Fold change vs veh, DEPTOR / RFU, CPM / Fold change vs veh, CPM / RFU, DNAJB6 / Fold change vs veh, DNAJB6 / RFU, CACNA2D3 / Fold change vs veh, CACNA2D3 / RFU, DTX4 / Fold change vs veh, DTX4 / RFU, TFCP2 / Fold change vs veh, TFCP2 / RFU, GMCL1 /// GMCL1P1 / Fold change vs veh, GMCL1 /// GMCL1P1 / RFU, AEBP2 / Fold change vs veh, AEBP2 / RFU, SNHG1 /// SNORD22 /// SNORD25 /// SNORD26 /// SNORD27 /// SNORD28 /// SNORD29 /// SNORD31 / Fold change vs veh, SNHG1 /// SNORD22 /// SNORD25 /// SNORD26 /// SNORD27 /// SNORD28 /// SNORD29 /// SNORD31 / Fold change (Aza/veh), C12orf56 (ProbeSet 11735607_a_at) / Fold change (ACY-1035/veh), C12orf56 (ProbeSet 11735607_a_at) / Fold change (Aza/veh), FGFR1OP (ProbeSet 11751329_s_at) / Fold change (ACY-1035/veh), FGFR1OP (ProbeSet 11751329_s_at) / Fold change (Aza/veh), VPS36 (ProbeSet 11739960_a_at) / Fold change (ACY-1035/veh), VPS36 (ProbeSet 11739960_a_at) / RFU SYPL1 (11715823_x_at) / Fold change /veh SYPL1 (11715823_x_at) / RFU IGFBP7 (11715501_s_at) / Fold change /veh IGFBP7 (11715501_s_at) / RFU REEP3 (11722064_at) / Fold change /veh REEP3 (11722064_at) / RFU IGLL1 (11728026_x_at) / Fold change /veh IGLL1 (11728026_x_at): dose or concentration left out as unconfirmed
Conditions: MV-4-11 cells, 48 hours

## Nc1ccc(-c2cccs2)cc1NC(=O)c1ccc2c(c1)cc(C1CC1)n2CCN1CCOCC1 [ACY-1035]
  RFU ANKRD19P (11752326_a_at): 5.89 RFU
